The values below are quoted from earlier work in patent US6485514B1 (priority 1997, dated 2002).

Molecules are shown by their SMILES. Read-outs that look alike come from different tables or passages of the source.

For data set [1], the system named is human colon cancer xenografts.
For data set [2] the following is noted: administered intravenously, clinical trials.
The conditions of data set [3]: cremaphor vehicle, 6-hour IV infusion.
The test system of data set [4] is drug-refractory ovarian cancer. Particulars: in vivo.
For data set [5] the following is noted: patients.

Consider `CC[C@@]1(O)C(=O)OCc2c1cc1n(c2=O)Cc2cc3c(N)cccc3nc2-1` [9AC, 9-Amino-20(S)-Camptothecin], for which, in data set [1], the “anticancer activity against human colon cancer xenografts” value is recorded as “high anticancer activity”.

In the case of `CC[C@@]1(O)C(=O)OCc2c1cc1n(c2=O)Cc2cc3cc4c(cc3nc2-1)OCO4` [10,11 MD, 10,11-Methylendioxy-20(S)-Camptothecin], the “anticancer activity against human colon cancer xenografts” value in data set [1] is reported as “high anticancer activity”.

`CC[C@@](O)(C(=O)[O-])c1cc2n(c(=O)c1CO)Cc1cc3ccccc3nc1-2.[Na+]` [CPT Na+, Camptothecin Sodium Salt]: the “clinical outcome (toxicity and potency)” value in data set [2] (listed as sodium salt of CPT) was “high toxicity and low potency”; in data set [2] (Sodium Salt), “ineffectiveness and the toxicity”.

As to `CC(=O)O[C@H]1C(=O)[C@@]2(C)[C@H]([C@H](OC(=O)c3ccccc3)[C@]3(O)C[C@H](OC(=O)[C@H](O)[C@@H](NC(=O)c4ccccc4)c4ccccc4)C(C)=C1C3(C)C)[C@]1(OC(C)=O)CO[C@@H]1C[C@@H]2O` [taxol], the dose-limiting toxicity result in data set [3] was “neurotoxicity and leucopenia were dose-limiting”; in data set [5] (6-hour IV infusion) it was “Myelosuppression was dose-limiting”. In data set [4], the “activity against drug-refractory ovarian cancer” value is recorded as “active agent”. For the same compound, the maximum tolerated dose in data set [5] (6-hour IV infusion every 21 days) was 275 mg/m^2.
